± gives the standard deviation of the averaged measurements.
Experiments:
[1] = compound: CCN(CC)CCCCNc1ncc2cc(-c3cc(OC)cc(OC)c3)c(NC(=O)NC(C)(C)C)nc2n1; assay: surviving fraction relative to DMSO-only wells; higher = less growth inhibition; settings: exposure time: 5 days
Procedure, shortened: (§1)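 Surviving fraction is CellTiter-Glo luminescence divided by the median of wells given DMSO only. For this, log-phase tumour cell lines went into 384-well plates at 250–500 cells per well and, 24 hours later, into five days of continuous inhibitor exposure at 0.5, 1, 5, 10, 50, 100, 500 and 1000 nM. Lines were screened three times and retained only if replicate Pearson r >0.7 and median Z' >0.3.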

VISMODEGIB = compound: CS(=O)(=O)c1ccc(C(=O)Nc2ccc(Cl)c(-c3ccccn3)c2)c(Cl)c1 [VISMODEGIB]; assay: as above; settings: exposure time: 5 days
Procedure, shortened: as §1

Row | Test System | surviving fraction ([1]; 0.5 nM) | surviving fraction ([1]; 1 nM) | surviving fraction ([1]; 5 nM) | surviving fraction ([1]; 10 nM) | surviving fraction ([1]; 50 nM) | surviving fraction ([1]; 100 nM) | surviving fraction ([1]; 500 nM) | surviving fraction ([1]; 1000 nM) | surviving fraction (VISMODEGIB; 0.5 nM) | surviving fraction (VISMODEGIB; 1 nM) | surviving fraction (VISMODEGIB; 5 nM) | surviving fraction (VISMODEGIB; 10 nM) | surviving fraction (VISMODEGIB; 50 nM) | surviving fraction (VISMODEGIB; 100 nM) | surviving fraction (VISMODEGIB; 500 nM) | surviving fraction (VISMODEGIB; 1000 nM)
1 | 22RV1 PROSTATE | 1 ± 0.029 | 1.02 ± 0.048 | 0.964 ± 0.011 | 1.01 ± 0.013 | 0.997 ± 0.034 | 1.02 ± 0.044 | 1.04 ± 0.04 | 1.05 ± 0.036 | 1.01 ± 0.061 | 1.04 ± 0.029 | 0.962 ± 0.013 | 0.974 ± 0.0072 | 0.924 ± 0.037 | 1.102 ± 0.0057 | 1.04 ± 0.022 | 1.09 ± 0.068
2 | 93VU HEADNECK | 0.952 ± 0.063 | 0.975 ± 0.062 | 1.02 ± 0.1 | 1.03 ± 0.11 | 1.03 ± 0.095 | 0.884 ± 0.18 | 1.01 ± 0.085 | 0.949 ± 0.076 | 0.962 ± 0.03 | 1.08 ± 0.057 | 1.06 ± 0.03 | 1.02 ± 0.14 | 0.868 ± 0.025 | 0.964 ± 0.093 | 0.849 ± 0.061 | 0.915 ± 0.04
3 | 143B BONE | 0.941 ± 0.078 | 0.997 ± 0.026 | 0.954 ± 0.068 | 1.02 ± 0.032 | 1.01 ± 0.016 | 1.01 ± 0.061 | 0.97 ± 0.054 | 0.995 ± 0.038 | 0.945 ± 0.063 | 0.98 ± 0.047 | 0.932 ± 0.1 | 0.993 ± 0.069 | 0.966 ± 0.042 | 0.965 ± 0.013 | 1.01 ± 0.046 | 1.01 ± 0.057
4 | A549 LUNG | 0.975 ± 0.015 | 0.97 ± 0.049 | 0.949 ± 0.036 | 0.952 ± 0.042 | 0.963 ± 0.01 | 1.032 ± 0.0046 | 1.006 ± 0.0065 | 1.05 ± 0.061 | 0.979 ± 0.018 | 0.9893 ± 0.0035 | 1.01 ± 0.033 | 1.02 ± 0.045 | 0.994 ± 0.017 | 1.06 ± 0.035 | 1.01 ± 0.032 | 1.03 ± 0.069
5 | ASKA SYNOVIAL | 1.04 ± 0.044 | 1.14 ± 0.029 | 1.19 ± 0.046 | 1.09 ± 0.091 | 1.14 ± 0.046 | 1.18 ± 0.065 | 1.09 ± 0.086 | 0.992 ± 0.013 | 1.04 ± 0.03 | 1.07 ± 0.046 | 1.08 ± 0.086 | 1.11 ± 0.039 | 0.939 ± 0.03 | 0.964 ± 0.05 | 0.926 ± 0.048 | 0.951 ± 0.055
6 | BT20 BREAST | 1.17 ± 0.13 | 1.17 ± 0.065 | 1.09 ± 0.26 | 1.17 ± 0.09 | 1.17 ± 0.12 | 1.12 ± 0.029 | 1.53 ± 0.17 | 1.64 ± 0.057 | 1.08 ± 0.13 | 0.977 ± 0.039 | 1.01 ± 0.062 | 1.02 ± 0.048 | 0.964 ± 0.086 | 0.901 ± 0.058 | 0.898 ± 0.032 | 0.907 ± 0.11
7 | BT549 BREAST | 1.16 ± 0.13 | 1.16 ± 0.11 | 1.15 ± 0.11 | 1.19 ± 0.077 | 1.18 ± 0.17 | 1.04 ± 0.096 | 0.932 ± 0.059 | 0.843 ± 0.068 | 1.02 ± 0.047 | 1.01 ± 0.12 | 1.09 ± 0.15 | 1.09 ± 0.15 | 0.76 ± 0.23 | 0.799 ± 0.19 | 0.744 ± 0.071 | 0.75 ± 0.018
8 | C33A CERVIX | 0.832 ± 0.044 | 0.831 ± 0.077 | 0.921 ± 0.068 | 0.914 ± 0.1 | 0.968 ± 0.1 | 0.871 ± 0.12 | 0.828 ± 0.073 | 0.814 ± 0.065 | 0.872 ± 0.066 | 1.007 ± 0.0076 | 1.12 ± 0.087 | 0.985 ± 0.061 | 0.879 ± 0.066 | 1 ± 0.069 | 0.851 ± 0.055 | 0.953 ± 0.066
9 | CADOES1 SOFT TISSUE | 0.942 ± 0.1 | 0.905 ± 0.1 | 0.935 ± 0.21 | 0.913 ± 0.071 | 0.895 ± 0.076 | 0.9 ± 0.036 | 0.901 ± 0.056 | 1.05 ± 0.043 | 0.884 ± 0.024 | 0.935 ± 0.085 | 0.968 ± 0.1 | 0.914 ± 0.056 | 0.952 ± 0.047 | 1.05 ± 0.091 | 0.979 ± 0.056 | 0.964 ± 0.073
10 | CAL51 BREAST | 0.92 ± 0.063 | 0.943 ± 0.013 | 0.964 ± 0.061 | 0.961 ± 0.042 | 0.858 ± 0.035 | 0.83 ± 0.03 | 0.673 ± 0.019 | 0.6517 ± 0.0035 | 0.895 ± 0.042 | 0.923 ± 0.013 | 0.9295 ± 0.0062 | 0.931 ± 0.043 | 0.931 ± 0.056 | 0.975 ± 0.071 | 0.9558 ± 0.009 | 0.963 ± 0.01
11 | CAL72 BONE | 1.053 ± 0.0092 | 1.08 ± 0.054 | 1.08 ± 0.082 | 1.01 ± 0.024 | 0.833 ± 0.038 | 0.484 ± 0.013 | 0.281 ± 0.022 | 0.208 ± 0.026 | 0.994 ± 0.016 | 1.01 ± 0.017 | 1.021 ± 0.0075 | 0.9987 ± 0.0091 | 0.919 ± 0.042 | 0.934 ± 0.025 | 0.922 ± 0.033 | 0.938 ± 0.037
12 | CAL120 BREAST | 0.933 ± 0.032 | 0.918 ± 0.031 | 0.9335 ± 0.0035 | 0.928 ± 0.023 | 0.852 ± 0.029 | 0.746 ± 0.053 | 0.565 ± 0.021 | 0.537 ± 0.06 | 0.987 ± 0.019 | 0.968 ± 0.018 | 0.999 ± 0.012 | 1 ± 0.012 | 0.997 ± 0.021 | 1.01 ± 0.013 | 0.942 ± 0.013 | 0.989 ± 0.016
13 | CASKI CERVIX | 0.927 ± 0.03 | 0.907 ± 0.022 | 0.953 ± 0.056 | 0.982 ± 0.042 | 0.996 ± 0.013 | 0.941 ± 0.05 | 0.751 ± 0.035 | 0.602 ± 0.014 | 0.939 ± 0.035 | 0.979 ± 0.026 | 0.958 ± 0.026 | 0.973 ± 0.046 | 0.828 ± 0.049 | 0.893 ± 0.058 | 0.876 ± 0.075 | 0.898 ± 0.084
14 | CHLA90 AUTONOMIC GANGLIA | 0.906 ± 0.053 | 1.02 ± 0.046 | 0.892 ± 0.058 | 0.9023 ± 0.0046 | 0.907 ± 0.036 | 0.912 ± 0.022 | 0.7 ± 0.035 | 0.598 ± 0.072 | 0.923 ± 0.084 | 0.949 ± 0.06 | 0.962 ± 0.056 | 1.01 ± 0.062 | 0.914 ± 0.079 | 0.925 ± 0.013 | 0.92 ± 0.028 | 0.953 ± 0.041
15 | CME SYNOVIAL | 1.08 ± 0.089 | 1.254 ± 0.0095 | 1.24 ± 0.14 | 1.25 ± 0.16 | 1.18 ± 0.1 | 1.22 ± 0.05 | 1.06 ± 0.068 | 0.969 ± 0.11 | 1.24 ± 0.088 | 1.2 ± 0.12 | 1.2 ± 0.27 | 1.3 ± 0.16 | 1.07 ± 0.098 | 1.12 ± 0.13 | 1.03 ± 0.17 | 0.9627 ± 0.0064
16 | COLO320DM LARGE INTESTINE | 0.959 ± 0.04 | 1.14 ± 0.037 | 1.11 ± 0.08 | 1.05 ± 0.072 | 1.06 ± 0.064 | 1.1 ± 0.11 | 1.03 ± 0.068 | 1.1 ± 0.041 | 1.02 ± 0.063 | 1.03 ± 0.12 | 1.14 ± 0.081 | 1.06 ± 0.069 | 1.05 ± 0.094 | 1.02 ± 0.087 | 1.04 ± 0.092 | 0.977 ± 0.095

From the supplement of paper PMC6045584
